Test results published in ChEMBL document CHEMBL3885881, “DrugMatrix”.

Organism: Rattus norvegicus
Assay: DrugMatrix - Regimen: Daily Repeat
Type: toxicity, organism-based, Sprague-Dawley
Parameters: regimen Daily Repeat, gender Male, age 6-8 weeks
Details: in vivo, po, route oral GAVAGE, vehicle .5 % CMC; for ABSOLUTE BASOPHIL / ABSOLUTE EOSINOPHIL / ABSOLUTE LYMPHOCYTE / ABSOLUTE MONOCYTE / ABSOLUTE SEGMENTED NEUTROPHIL / BASOPHIL / EOSINOPHIL / ERYTHROCYTE COUNT / HEMATOCRIT / HEMOGLOBIN / LEUKOCYTE COUNT / LYMPHOCYTE / MEAN CORPUSCULAR HEMOGLOBIN / MEAN CORPUSCULAR HEMOGLOBIN CONCENTRATION / MEAN CORPUSCULAR VOLUME / MONOCYTE / NEUTROPHIL / NUCLEATED RED BLOOD CELLS / PLATELET COUNT: tissue Blood; for ALANINE AMINOTRANSFERASE / ALBUMIN / ALKALINE PHOSPHATASE / ASPARTATE AMINOTRANSFERASE / BLOOD UREA NITROGEN / CARBON DIOXIDE / CHLORIDE / CHOLESTEROL / CREATINE PHOSPHOKINASE / CREATININE / GLUCOSE / LACTATE DEHYDROGENASE / LIPASE / PHOSPHORUS / POTASSIUM / SODIUM / TOTAL BILIRUBIN / TOTAL PROTEIN / URIC ACID: tissue Plasma
[1] = 1 mg/kg, 72 h, dose level Low, time 3 day
[2] = 1 mg/kg, 120 h, dose level Low, time 5 day
[3] = 1500 mg/kg, 72 h, dose level High, time 3 day
[4] = 1500 mg/kg, 120 h, dose level High, time 5 day

CCOC(=O)[C@H](CCc1ccccc1)N[C@@H](C)C(=O)N1[C@H](C(=O)O)C[C@@H]2CCC[C@@H]21
ABSOLUTE BASOPHIL [1]: 0 CELLS/uL
ABSOLUTE EOSINOPHIL [1]: 0 CELLS/uL
ABSOLUTE LYMPHOCYTE [1]: 13012 CELLS/uL
ABSOLUTE MONOCYTE [1]: 125.67 CELLS/uL
ABSOLUTE SEGMENTED NEUTROPHIL [1]: 829 CELLS/uL
BASOPHIL [1]: 0%
EOSINOPHIL [1]: 0%
ERYTHROCYTE COUNT [1]: 5.51 x10E6/uL
HEMATOCRIT [1]: 35.1%
HEMOGLOBIN [1]: 14.07 G/DL
LEUKOCYTE COUNT [1]: 13.97 x10E3/uL
LYMPHOCYTE [1]: 92.67%
MEAN CORPUSCULAR HEMOGLOBIN [1]: 25.53 pg
MEAN CORPUSCULAR HEMOGLOBIN CONCENTRATION [1]: 40.07 G/DL
MEAN CORPUSCULAR VOLUME [1]: 63.73 fL
MONOCYTE [1]: 1%
NEUTROPHIL [1]: 6.33%
NUCLEATED RED BLOOD CELLS [1]: 0 /100WBC
PLATELET COUNT [1]: 1322.67 x10E3/uL
ALANINE AMINOTRANSFERASE [1]: 44.33 u/L
ALBUMIN [1]: 4.53 G/DL
ALKALINE PHOSPHATASE [1]: 320.33 u/L
ASPARTATE AMINOTRANSFERASE [1]: 82 u/L
BLOOD UREA NITROGEN [1]: 17 mg/dL
CARBON DIOXIDE [1]: 28 mmol/L
CHLORIDE [1]: 100.33 MEQ/L
CHOLESTEROL [1]: 74.33 mg/dL
CREATINE PHOSPHOKINASE [1]: 223 u/L
CREATININE [1]: 0.15 mg/dL
GLUCOSE [1]: 156.33 mg/dL
LACTATE DEHYDROGENASE [1]: 243 u/L
LIPASE [1]: 9.33 u/L
PHOSPHORUS [1]: 13.7 mg/dL
POTASSIUM [1]: 7.23 MEQ/L
SODIUM [1]: 146.6 MEQ/L
TOTAL BILIRUBIN [1]: 0.27 mg/dL
TOTAL PROTEIN [1]: 6.27 G/DL
URIC ACID [1]: 1.87 mg/dL
ABSOLUTE BASOPHIL [2]: 0 CELLS/uL
ABSOLUTE EOSINOPHIL [2]: 73 CELLS/uL
ABSOLUTE LYMPHOCYTE [2]: 14658 CELLS/uL
ABSOLUTE MONOCYTE [2]: 332.67 CELLS/uL
ABSOLUTE SEGMENTED NEUTROPHIL [2]: 1636.33 CELLS/uL
BASOPHIL [2]: 0%
EOSINOPHIL [2]: 0.33%
ERYTHROCYTE COUNT [2]: 5.38 x10E6/uL
HEMATOCRIT [2]: 35.13%
HEMOGLOBIN [2]: 13.27 G/DL
LEUKOCYTE COUNT [2]: 16.7 x10E3/uL
LYMPHOCYTE [2]: 88.33%
MEAN CORPUSCULAR HEMOGLOBIN [2]: 24.7 pg
MEAN CORPUSCULAR HEMOGLOBIN CONCENTRATION [2]: 37.8 G/DL
MEAN CORPUSCULAR VOLUME [2]: 65.37 fL
MONOCYTE [2]: 1.67%
NEUTROPHIL [2]: 9.67%
NUCLEATED RED BLOOD CELLS [2]: 0 /100WBC
PLATELET COUNT [2]: 1368.33 x10E3/uL
ALANINE AMINOTRANSFERASE [2]: 58.33 u/L
ALBUMIN [2]: 4.37 G/DL
ALKALINE PHOSPHATASE [2]: 395 u/L
ASPARTATE AMINOTRANSFERASE [2]: 74.67 u/L
BLOOD UREA NITROGEN [2]: 20 mg/dL
CARBON DIOXIDE [2]: 28.67 mmol/L
CHLORIDE [2]: 101.67 MEQ/L
CHOLESTEROL [2]: 69.67 mg/dL
CREATINE PHOSPHOKINASE [2]: 158.67 u/L
CREATININE [2]: 0.2 mg/dL
GLUCOSE [2]: 153.67 mg/dL
LACTATE DEHYDROGENASE [2]: 81.67 u/L
LIPASE [2]: 8.33 u/L
PHOSPHORUS [2]: 12.57 mg/dL
POTASSIUM [2]: 6.7 MEQ/L
SODIUM [2]: 146.17 MEQ/L
TOTAL BILIRUBIN [2]: 0.2 mg/dL
TOTAL PROTEIN [2]: 6.03 G/DL
URIC ACID [2]: 1.43 mg/dL
ABSOLUTE BASOPHIL [3]: 0 CELLS/uL
ABSOLUTE EOSINOPHIL [3]: 134.33 CELLS/uL
ABSOLUTE LYMPHOCYTE [3]: 16266.67 CELLS/uL
ABSOLUTE MONOCYTE [3]: 0 CELLS/uL
ABSOLUTE SEGMENTED NEUTROPHIL [3]: 1032.33 CELLS/uL
BASOPHIL [3]: 0%
EOSINOPHIL [3]: 0.67%
ERYTHROCYTE COUNT [3]: 5.12 x10E6/uL
HEMATOCRIT [3]: 34.53%
HEMOGLOBIN [3]: 13.77 G/DL
LEUKOCYTE COUNT [3]: 17.43 x10E3/uL
LYMPHOCYTE [3]: 93%
MEAN CORPUSCULAR HEMOGLOBIN [3]: 26.9 pg
MEAN CORPUSCULAR HEMOGLOBIN CONCENTRATION [3]: 39.93 G/DL
MEAN CORPUSCULAR VOLUME [3]: 67.37 fL
MONOCYTE [3]: 0%
NEUTROPHIL [3]: 6.33%
NUCLEATED RED BLOOD CELLS [3]: 0.33 /100WBC
PLATELET COUNT [3]: 1317.67 x10E3/uL
ALANINE AMINOTRANSFERASE [3]: 41.33 u/L
ALBUMIN [3]: 4.1 G/DL
ALKALINE PHOSPHATASE [3]: 454.33 u/L
ASPARTATE AMINOTRANSFERASE [3]: 81.67 u/L
BLOOD UREA NITROGEN [3]: 30.67 mg/dL
CARBON DIOXIDE [3]: 21.67 mmol/L
CHLORIDE [3]: 104.67 MEQ/L
CHOLESTEROL [3]: 56.67 mg/dL
CREATINE PHOSPHOKINASE [3]: 460 u/L
CREATININE [3]: 0.26 mg/dL
GLUCOSE [3]: 192.67 mg/dL
LACTATE DEHYDROGENASE [3]: 379.67 u/L
LIPASE [3]: 8 u/L
PHOSPHORUS [3]: 12.53 mg/dL
POTASSIUM [3]: 7.28 MEQ/L
SODIUM [3]: 143.5 MEQ/L
TOTAL BILIRUBIN [3]: 0.17 mg/dL
TOTAL PROTEIN [3]: 5.9 G/DL
URIC ACID [3]: 1.93 mg/dL
ABSOLUTE BASOPHIL [4]: 0 CELLS/uL
ABSOLUTE EOSINOPHIL [4]: 56.33 CELLS/uL
ABSOLUTE LYMPHOCYTE [4]: 15250 CELLS/uL
ABSOLUTE MONOCYTE [4]: 259.67 CELLS/uL
ABSOLUTE SEGMENTED NEUTROPHIL [4]: 1034 CELLS/uL
BASOPHIL [4]: 0%
EOSINOPHIL [4]: 0.33%
ERYTHROCYTE COUNT [4]: 5.8 x10E6/uL
HEMATOCRIT [4]: 35.77%
HEMOGLOBIN [4]: 14.07 G/DL
LEUKOCYTE COUNT [4]: 16.6 x10E3/uL
LYMPHOCYTE [4]: 92%
MEAN CORPUSCULAR HEMOGLOBIN [4]: 24.3 pg
MEAN CORPUSCULAR HEMOGLOBIN CONCENTRATION [4]: 39.37 G/DL
MEAN CORPUSCULAR VOLUME [4]: 61.63 fL
MONOCYTE [4]: 1.67%
NEUTROPHIL [4]: 6%
NUCLEATED RED BLOOD CELLS [4]: 0 /100WBC
PLATELET COUNT [4]: 1413.67 x10E3/uL
ALANINE AMINOTRANSFERASE [4]: 55.33 u/L
ALBUMIN [4]: 4.33 G/DL
ALKALINE PHOSPHATASE [4]: 583.33 u/L
ASPARTATE AMINOTRANSFERASE [4]: 89.33 u/L
BLOOD UREA NITROGEN [4]: 31.33 mg/dL
CARBON DIOXIDE [4]: 29 mmol/L
CHLORIDE [4]: 102 MEQ/L
CHOLESTEROL [4]: 35 mg/dL
CREATINE PHOSPHOKINASE [4]: 314.67 u/L
CREATININE [4]: 0.26 mg/dL
GLUCOSE [4]: 150.33 mg/dL
LACTATE DEHYDROGENASE [4]: 374.33 u/L
LIPASE [4]: 8.67 u/L
PHOSPHORUS [4]: 11.03 mg/dL
POTASSIUM [4]: 7.1 MEQ/L
SODIUM [4]: 143.93 MEQ/L
TOTAL BILIRUBIN [4]: 0.27 mg/dL
TOTAL PROTEIN [4]: 6.3 G/DL
URIC ACID [4]: 1.6 mg/dL
